US20230301300A1, “HERBICIDAL COMPOSITIONS” (SYNGENTA CROP PROTECTION AG, priority 2020, published 2023)

What was measured:
Assay type in all cases: in vivo
[1] = system: Echinochloa crus-galli (ECHCG); assay: B1 Post-Emergence Efficacy - Test 1; details: 1000 g/ha, after 13 days, five point scale
Method: (§1) Seeds of a variety of test species are sown in standard soil in pots:— Solanum nigrum (SOLNI), Amaranthus retoflexus (AMARE), Setaria faberi (SETFA), Alopecurus myosuroides (ALOMY), Echinochloa crus-galli (ECHCG), Ipomoea hederacea (IPOHE), Lolium perenne (LOLPE). After 8 days cultivation (post-emergence) under controlled conditions in a glasshouse (at 24/16° C., day/night; 14 hours light; 65% humidity), the plants are sprayed with an aqueous spray solution derived from the formulation of the technical active ingredient in acetone/water (50:50) solution containing 0.5% Tween 20 (polyoxyethylene sorbitan monolaurate, CAS RN 9005-64-5). Compounds are applied at 1000 g/ha. The test plants are then grown in a glasshouse under controlled conditions in a glasshouse (at 24/16° C., day/night; 14 hours light; 65% humidity) and watered twice daily. After 13 days, the test is evaluated for the percentage damage caused to the plant. The biological activities are assessed on a five point scale (5=80-100%; 4=60-79%; 3=40-59%; 2=20-39%; 1=0-19%). A blank value in the table is indicative that the compound was not tested on that species.

Lolium perenne (LOLPE) = assay: B1 Post-Emergence Efficacy - Test 1; details: 1000 g/ha, after 13 days, five point scale
Method: as §1

Solanum nigrum (SOLNI) = assay: B1 Post-Emergence Efficacy - Test 1; details: 1000 g/ha, after 13 days, five point scale
Method: as §1

Setaria faberi (SETFA) [2] = assay: B1 Post-Emergence Efficacy - Test 1; details: 1000 g/ha, after 13 days, five point scale
Method: as §1

[3] = system: Amaranthus retoflexus (AMARE); assay: B1 Post-Emergence Efficacy - Test 1; details: 1000 g/ha, after 13 days, five point scale
Method: as §1

[4] = system: Ipomoea hederacea (IPOHE); assay: B1 Post-Emergence Efficacy - Test 1; details: 1000 g/ha, after 13 days, five point scale
Method: as §1

Zea mays (ZEAMX) = assay: B2 Post-Emergence Efficacy - Test 2; details: 15 days after application; for Herbicidal activity ZEAMX: 0-100 scale; for Herbicidal activity on a 0-100 scale, ZEAMX: 0=no damage, 100=total kill
Method: (§2) Seeds of a variety of test species (see Table B1) were sown in standard soil in pots. After cultivation for 12 days (post-emergence) under controlled conditions in a glasshouse (at 24/18° C. or 20/16° C., at day/night; 16 hours light; 65% humidity), the plants were sprayed with an aqueous spray solution derived from the formulation of the technical active ingredient dissolved in IF50 (see Table B2 for composition) and adjuvant (Genapol X080) was added to the spray solution at a rate of 0.2% v/v.
(§3) After application, the test plants were grown in a glasshouse under controlled conditions (as above) and watered twice daily. Herbicidal activity was evaluated 15 days after application on a 0-100 scale. The results, where 0=no damage to test plant and 100=total kill of test plant are shown below in Tables 8 to 11.

Galium aparine (GALAP) = assay: B2 Post-Emergence Efficacy - Test 2; details: 15 days after application, 0-100 scale
Method: as §2, §3

Setaria faberi (SETFA) [5] = assay: B2 Post-Emergence Efficacy - Test 2; details: 15 days after application, 0=no damage, 100=total kill
Method: as §2, §3

[6] = system: Panicum miliaceum (PANMI); assay: B2 Post-Emergence Efficacy - Test 2; details: 15 days after application, 0=no damage, 100=total kill
Method: as §2, §3

Eleisine indica (ELEIN) = assay: B2 Post-Emergence Efficacy - Test 2; details: 15 days after application, 0=no damage, 100=total kill
Method: as §2, §3

[7] = system: Chenopodium album (CHEAL); assay: B2 Post-Emergence Efficacy - Test 2; details: 15 days after application, 0-100 scale
Method: as §2, §3

Veronica persica (VERPE) = assay: B2 Post-Emergence Efficacy - Test 2; details: 15 days after application, 0-100 scale
Method: as §2, §3

[8] = system: Echinochloa crus galli (ECHCG); assay: B2 Post-Emergence Efficacy - Test 2; details: 15 days after application, 0=no damage, 100=total kill
Method: as §2, §3

Stellaria media (STEME) = assay: B2 Post-Emergence Efficacy - Test 2; details: 15 days after application, 0-100 scale
Method: as §2, §3

Orysa sativa (ORYSA) = assay: B2 Post-Emergence Efficacy - Test 2; details: 15 days after application; for Herbicidal activity ORYSA: 0-100 scale; for Herbicidal activity on a 0-100 scale, ORYSA: 0=no damage, 100=total kill
Method: as §2, §3

[9] = system: Euphorbia hetrophylla (EPHHL); assay: B2 Post-Emergence Efficacy - Test 2; details: 15 days after application, 0-100 scale
Method: as §2, §3

Cc1nn(C)c(=O)c(-c2c(F)ccc(Cl)c2CCc2ccc(C(F)(F)F)nc2)c1O [Compound 1.042, 4-[3-chloro-6-fluoro-2-[2-[6-(trifluoromethyl)-3-pyridyl]ethyl]phenyl]-5-hydroxy-2,6-dimethyl-pyridazin-3-one]
percentage damage caused to the plant, ECHCG [1]: 5 (5=80-100%)
percentage damage caused to the plant, LOLPE (Lolium perenne (LOLPE)): 5 (5=80-100%)
percentage damage caused to the plant, SOLNI (Solanum nigrum (SOLNI)): 5 (5=80-100%)
percentage damage caused to the plant, SETFA (Setaria faberi (SETFA) [2]): 5 (5=80-100%)
percentage damage caused to the plant, AMARE [3]: 5 (5=80-100%)
percentage damage caused to the plant, IPOHE [4]: 5 (5=80-100%)
Herbicidal activity ZEAMX (Zea mays (ZEAMX); 15 g/Ha): 0
Herbicidal activity on a 0-100 scale, ZEAMX (Zea mays (ZEAMX); 15 g/Ha): 0
Herbicidal activity ZEAMX (Zea mays (ZEAMX); 30 g/Ha): 10
Herbicidal activity on a 0-100 scale, ZEAMX (Zea mays (ZEAMX); 30 g/Ha): 10
Herbicidal activity ZEAMX (Zea mays (ZEAMX); 60 g/Ha): 20
Herbicidal activity on a 0-100 scale, ZEAMX (Zea mays (ZEAMX); 60 g/Ha): 20
Herbicidal activity ZEAMX (Zea mays (ZEAMX); 125 g/Ha): 60
Herbicidal activity on a 0-100 scale, ZEAMX (Zea mays (ZEAMX); 125 g/Ha): 60
Herbicidal activity ZEAMX (Zea mays (ZEAMX); 250 g/Ha): 70
Herbicidal activity on a 0-100 scale, ZEAMX (Zea mays (ZEAMX); 250 g/Ha): 70
Herbicidal activity ZEAMX (Zea mays (ZEAMX); 500 g/Ha): 90
Herbicidal activity on a 0-100 scale, ZEAMX (Zea mays (ZEAMX); 500 g/Ha): 90
Herbicidal activity GALAP (Galium aparine (GALAP); 15 g/Ha): 10
Herbicidal activity GALAP (Galium aparine (GALAP); 30 g/Ha): 30
Herbicidal activity GALAP (Galium aparine (GALAP); 60 g/Ha): 60
Herbicidal activity GALAP (Galium aparine (GALAP); 125 g/Ha): 80
Herbicidal activity GALAP (Galium aparine (GALAP); 250 g/Ha): 80
Herbicidal activity GALAP (Galium aparine (GALAP); 500 g/Ha): 90
Herbicidal activity on a 0-100 scale, SETFA (Setaria faberi (SETFA) [5]; 15 g/Ha): 40
Herbicidal activity on a 0-100 scale, SETFA (Setaria faberi (SETFA) [5]; 30 g/Ha): 80
Herbicidal activity on a 0-100 scale, SETFA (Setaria faberi (SETFA) [5]; 60 g/Ha): 90
Herbicidal activity on a 0-100 scale, SETFA (Setaria faberi (SETFA) [5]; 125 g/Ha): 90
Herbicidal activity on a 0-100 scale, SETFA (Setaria faberi (SETFA) [5]; 250 g/Ha): 90
Herbicidal activity on a 0-100 scale, SETFA (Setaria faberi (SETFA) [5]; 500 g/Ha): 100
Herbicidal activity on a 0-100 scale, PANMI ([6]; 15 g/Ha): 10
Herbicidal activity on a 0-100 scale, PANMI ([6]; 30 g/Ha): 60
Herbicidal activity on a 0-100 scale, PANMI ([6]; 60 g/Ha): 80
Herbicidal activity on a 0-100 scale, PANMI ([6]; 125 g/Ha): 90
Herbicidal activity on a 0-100 scale, PANMI ([6]; 250 g/Ha): 100
Herbicidal activity on a 0-100 scale, PANMI ([6]; 500 g/Ha): 100
Herbicidal activity on a 0-100 scale, ELEIN (Eleisine indica (ELEIN); 15 g/Ha): 0
Herbicidal activity on a 0-100 scale, ELEIN (Eleisine indica (ELEIN); 30 g/Ha): 70
Herbicidal activity on a 0-100 scale, ELEIN (Eleisine indica (ELEIN); 60 g/Ha): 70
Herbicidal activity on a 0-100 scale, ELEIN (Eleisine indica (ELEIN); 125 g/Ha): 80
Herbicidal activity on a 0-100 scale, ELEIN (Eleisine indica (ELEIN); 250 g/Ha): 80
Herbicidal activity on a 0-100 scale, ELEIN (Eleisine indica (ELEIN); 500 g/Ha): 90
Herbicidal activity CHEAL ([7]; 30 g/Ha): 90
Herbicidal activity CHEAL ([7]; 60 g/Ha): 90
Herbicidal activity CHEAL ([7]; 125 g/Ha): 90
Herbicidal activity CHEAL ([7]; 250 g/Ha): 100
Herbicidal activity CHEAL ([7]; 500 g/Ha): 100
Herbicidal activity VERPE (Veronica persica (VERPE); 15 g/Ha): 80
Herbicidal activity VERPE (Veronica persica (VERPE); 30 g/Ha): 90
Herbicidal activity VERPE (Veronica persica (VERPE); 60 g/Ha): 100
Herbicidal activity VERPE (Veronica persica (VERPE); 125 g/Ha): 100
Herbicidal activity VERPE (Veronica persica (VERPE); 250 g/Ha): 100
Herbicidal activity VERPE (Veronica persica (VERPE); 500 g/Ha): 100
Herbicidal activity on a 0-100 scale, ECHCG ([8]; 15 g/Ha): 80
Herbicidal activity on a 0-100 scale, ECHCG ([8]; 30 g/Ha): 90
Herbicidal activity on a 0-100 scale, ECHCG ([8]; 60 g/Ha): 90
Herbicidal activity on a 0-100 scale, ECHCG ([8]; 125 g/Ha): 90
Herbicidal activity on a 0-100 scale, ECHCG ([8]; 250 g/Ha): 100
Herbicidal activity on a 0-100 scale, ECHCG ([8]; 500 g/Ha): 100
Herbicidal activity STEME (Stellaria media (STEME); 15 g/Ha): 100
Herbicidal activity STEME (Stellaria media (STEME); 30 g/Ha): 100
Herbicidal activity STEME (Stellaria media (STEME); 60 g/Ha): 90
Herbicidal activity STEME (Stellaria media (STEME); 125 g/Ha): 100
Herbicidal activity STEME (Stellaria media (STEME); 250 g/Ha): 100
Herbicidal activity STEME (Stellaria media (STEME); 500 g/Ha): 100
Herbicidal activity ORYSA (Orysa sativa (ORYSA); 15 g/Ha): 0
Herbicidal activity on a 0-100 scale, ORYSA (Orysa sativa (ORYSA); 15 g/Ha): 0
Herbicidal activity ORYSA (Orysa sativa (ORYSA); 30 g/Ha): 0
Herbicidal activity on a 0-100 scale, ORYSA (Orysa sativa (ORYSA); 30 g/Ha): 0
Herbicidal activity ORYSA (Orysa sativa (ORYSA); 60 g/Ha): 0
Herbicidal activity on a 0-100 scale, ORYSA (Orysa sativa (ORYSA); 60 g/Ha): 0
Herbicidal activity ORYSA (Orysa sativa (ORYSA); 125 g/Ha): 0
Herbicidal activity on a 0-100 scale, ORYSA (Orysa sativa (ORYSA); 125 g/Ha): 0
Herbicidal activity ORYSA (Orysa sativa (ORYSA); 250 g/Ha): 20
Herbicidal activity on a 0-100 scale, ORYSA (Orysa sativa (ORYSA); 250 g/Ha): 20
Herbicidal activity ORYSA (Orysa sativa (ORYSA); 500 g/Ha): 50
Herbicidal activity on a 0-100 scale, ORYSA (Orysa sativa (ORYSA); 500 g/Ha): 50
Herbicidal activity EPHHL ([9]; 15 g/Ha): 80
Herbicidal activity EPHHL ([9]; 30 g/Ha): 90
Herbicidal activity EPHHL ([9]; 60 g/Ha): 90
Herbicidal activity EPHHL ([9]; 125 g/Ha): 100
Herbicidal activity EPHHL ([9]; 250 g/Ha): 100
Herbicidal activity EPHHL ([9]; 500 g/Ha): 100
